Consider five compounds from patent US20240254087A1, “SELECTIVE, PARTIAL, AND ARRESTIN-BIASED 5-HT2A AGONISTS WITH UTILITY IN VARIOUS DISORDERS” (Saint Joseph's University, priority 2021, published 2024).

Assay [1] has as its target T1, 5-HT2A (Homo sapiens, UniProt P28223). As to the kind of experiment: Ca2+ flux assay, 5-HT2A. The assay is classed as cell-based. Details: expressed in transfected cells. The following applies: for Emax: read-out: 5-HT2A Emax % 5-HT, Ca2+ flux. A general note: Calcium flux is commonly read through the fluorescence of an indicator in the cells.
For assay [2], the target named is T2, 5-HT2B (Homo sapiens, UniProt P41595). As to the kind of experiment: Ca2+ flux assay, 5-HT2B. The assay is classed as cell-based. More on the design: expressed in transfected cells. The following applies: Ca2+ flux; for Emax: read-out: 5-HT2B Emax % 5-HT.
The target in assay [3] is T2, 5-HT2B. As to the kind of experiment: Competitive radioligand binding (NIMH PDSP). More on the design: expressed in transfected cells.
Assay [4] addresses T3, 5-HT2C (Homo sapiens, UniProt P28335).
T3 sequence (P28335 33-458): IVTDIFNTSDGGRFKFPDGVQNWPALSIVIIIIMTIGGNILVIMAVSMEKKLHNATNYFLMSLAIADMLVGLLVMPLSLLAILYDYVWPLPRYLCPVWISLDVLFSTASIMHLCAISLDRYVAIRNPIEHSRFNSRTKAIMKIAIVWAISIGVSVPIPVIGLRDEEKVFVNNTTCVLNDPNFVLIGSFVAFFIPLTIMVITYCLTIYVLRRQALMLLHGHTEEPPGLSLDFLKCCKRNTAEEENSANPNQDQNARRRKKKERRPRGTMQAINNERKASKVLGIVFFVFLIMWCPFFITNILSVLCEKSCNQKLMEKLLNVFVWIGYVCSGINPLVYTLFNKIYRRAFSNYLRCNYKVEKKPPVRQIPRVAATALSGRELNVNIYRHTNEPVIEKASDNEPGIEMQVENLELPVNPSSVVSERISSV
Kind of assay: Competitive radioligand binding (NIMH PDSP). More on the design: expressed in transfected cells.

Assay [5] concerns 5-HT2A. Kind of assay: Ca2+ flux assay, 5-HT2A. The following applies: Gq/11 Ca2+ mobilization; higher number = skewed towards 5-HT2A. The assay is classed as cell-based, human.
In assay [6] the target is T3, 5-HT2C. Kind of assay: Ca2+ flux assay, 5-HT2C. The note with it: for Emax: read-out: 5-HT2C Emax % 5-HT. Details: expressed in transfected cells. The class given is cell-based.
For assay [7], the target named is T4, 5-HT1A (Homo sapiens, UniProt P08908).
T4 sequence (P08908 1-422): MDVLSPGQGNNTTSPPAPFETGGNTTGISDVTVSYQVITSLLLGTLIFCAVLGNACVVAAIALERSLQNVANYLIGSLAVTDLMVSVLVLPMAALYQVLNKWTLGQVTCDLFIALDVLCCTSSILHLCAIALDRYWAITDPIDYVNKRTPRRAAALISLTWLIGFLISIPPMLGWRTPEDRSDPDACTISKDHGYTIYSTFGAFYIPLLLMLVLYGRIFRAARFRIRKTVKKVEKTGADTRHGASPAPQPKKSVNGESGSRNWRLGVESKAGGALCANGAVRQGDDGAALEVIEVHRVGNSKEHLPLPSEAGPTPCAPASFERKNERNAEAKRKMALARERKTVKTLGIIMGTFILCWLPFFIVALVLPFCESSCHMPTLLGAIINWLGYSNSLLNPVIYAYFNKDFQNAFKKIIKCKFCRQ
Kind of assay: Competitive radioligand binding (NIMH PDSP).

Assay [8] deals with T5, 5-HT3 (Homo sapiens, UniProt P46098).
T5 sequence (P46098 24-478): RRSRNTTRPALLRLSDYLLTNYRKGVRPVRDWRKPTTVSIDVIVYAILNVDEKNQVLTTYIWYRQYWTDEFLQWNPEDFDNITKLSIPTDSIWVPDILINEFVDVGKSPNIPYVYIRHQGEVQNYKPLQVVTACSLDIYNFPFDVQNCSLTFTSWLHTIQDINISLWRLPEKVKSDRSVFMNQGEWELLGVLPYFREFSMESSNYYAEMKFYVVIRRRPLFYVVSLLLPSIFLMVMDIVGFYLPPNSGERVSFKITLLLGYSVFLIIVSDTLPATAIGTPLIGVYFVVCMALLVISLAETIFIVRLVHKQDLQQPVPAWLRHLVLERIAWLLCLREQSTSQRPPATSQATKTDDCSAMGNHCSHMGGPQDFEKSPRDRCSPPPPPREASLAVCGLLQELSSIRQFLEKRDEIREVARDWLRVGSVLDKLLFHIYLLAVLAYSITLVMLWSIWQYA
As to the kind of experiment: Competitive radioligand binding (NIMH PDSP). The essentials:
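Competition binding against [3H]-ketanserin on human 5-HT2A membranes, and against the respective radioligand at the other receptors. Ki measured in triplicate after a 10,000 nM primary screen.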

Assay [9] concerns the target 5-HT1B (Homo sapiens, UniProt P28222). Kind of assay: Competitive radioligand binding (NIMH PDSP).
In assay [10] the target is 5-HT1D (Homo sapiens, UniProt P28221). Kind of assay: Competitive radioligand binding (NIMH PDSP).
In assay [11] the target is T1, 5-HT2A. As to the kind of experiment: Competitive radioligand binding (NIMH PDSP).
The target of assay [12] is 5-HT1e (Homo sapiens, UniProt P28566). Kind of assay: Competitive radioligand binding (NIMH PDSP).

The structures appear in SMILES notation. Read-outs that look alike come from different tables or passages of the source.

Chain of 5-HT1e (P28566 whole entry, species assumed): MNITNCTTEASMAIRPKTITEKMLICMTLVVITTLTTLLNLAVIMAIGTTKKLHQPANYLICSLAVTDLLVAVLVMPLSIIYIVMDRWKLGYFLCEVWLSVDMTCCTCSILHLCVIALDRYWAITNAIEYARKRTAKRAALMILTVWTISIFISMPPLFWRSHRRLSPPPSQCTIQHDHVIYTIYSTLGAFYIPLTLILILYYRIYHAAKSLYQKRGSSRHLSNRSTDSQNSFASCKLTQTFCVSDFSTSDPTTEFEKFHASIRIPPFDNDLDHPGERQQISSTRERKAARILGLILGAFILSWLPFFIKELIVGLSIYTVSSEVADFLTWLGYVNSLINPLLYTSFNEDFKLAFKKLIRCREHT
Chain of 5-HT1D (P28221 whole entry, species assumed): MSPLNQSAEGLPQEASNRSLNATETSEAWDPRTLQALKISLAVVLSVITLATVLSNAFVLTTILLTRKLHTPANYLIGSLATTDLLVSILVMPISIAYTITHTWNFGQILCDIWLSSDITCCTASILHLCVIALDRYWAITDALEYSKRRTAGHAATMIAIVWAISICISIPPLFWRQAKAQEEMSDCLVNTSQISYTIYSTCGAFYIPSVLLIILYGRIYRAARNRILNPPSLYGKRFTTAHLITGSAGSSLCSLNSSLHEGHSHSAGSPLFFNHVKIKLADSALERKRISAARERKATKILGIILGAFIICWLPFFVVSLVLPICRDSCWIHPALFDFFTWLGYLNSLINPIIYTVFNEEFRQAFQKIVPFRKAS
Chain of 5-HT1B (P28222 whole entry, species assumed): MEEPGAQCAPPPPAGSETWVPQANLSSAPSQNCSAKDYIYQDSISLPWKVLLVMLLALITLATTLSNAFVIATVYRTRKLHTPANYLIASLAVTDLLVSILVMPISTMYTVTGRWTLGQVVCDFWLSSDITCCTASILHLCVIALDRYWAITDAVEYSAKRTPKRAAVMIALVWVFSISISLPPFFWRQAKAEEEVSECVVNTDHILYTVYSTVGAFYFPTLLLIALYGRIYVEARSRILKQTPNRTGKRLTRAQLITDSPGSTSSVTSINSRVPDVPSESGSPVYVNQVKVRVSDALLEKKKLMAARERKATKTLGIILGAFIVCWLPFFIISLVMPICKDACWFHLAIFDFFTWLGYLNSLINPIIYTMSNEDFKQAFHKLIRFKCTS
T2 sequence (P41595 whole entry): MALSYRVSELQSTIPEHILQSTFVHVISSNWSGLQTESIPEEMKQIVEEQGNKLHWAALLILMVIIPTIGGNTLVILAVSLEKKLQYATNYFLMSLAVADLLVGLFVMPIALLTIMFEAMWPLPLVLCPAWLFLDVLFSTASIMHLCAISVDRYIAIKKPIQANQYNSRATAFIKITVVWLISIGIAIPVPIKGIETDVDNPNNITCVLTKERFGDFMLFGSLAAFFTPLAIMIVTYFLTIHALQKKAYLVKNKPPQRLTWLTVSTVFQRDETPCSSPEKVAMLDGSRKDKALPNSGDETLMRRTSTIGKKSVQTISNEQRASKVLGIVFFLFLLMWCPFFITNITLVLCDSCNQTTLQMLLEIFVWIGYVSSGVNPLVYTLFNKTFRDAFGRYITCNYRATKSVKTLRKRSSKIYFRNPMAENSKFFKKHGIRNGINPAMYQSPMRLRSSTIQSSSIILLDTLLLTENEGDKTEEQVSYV
T1 sequence (P28223 whole entry): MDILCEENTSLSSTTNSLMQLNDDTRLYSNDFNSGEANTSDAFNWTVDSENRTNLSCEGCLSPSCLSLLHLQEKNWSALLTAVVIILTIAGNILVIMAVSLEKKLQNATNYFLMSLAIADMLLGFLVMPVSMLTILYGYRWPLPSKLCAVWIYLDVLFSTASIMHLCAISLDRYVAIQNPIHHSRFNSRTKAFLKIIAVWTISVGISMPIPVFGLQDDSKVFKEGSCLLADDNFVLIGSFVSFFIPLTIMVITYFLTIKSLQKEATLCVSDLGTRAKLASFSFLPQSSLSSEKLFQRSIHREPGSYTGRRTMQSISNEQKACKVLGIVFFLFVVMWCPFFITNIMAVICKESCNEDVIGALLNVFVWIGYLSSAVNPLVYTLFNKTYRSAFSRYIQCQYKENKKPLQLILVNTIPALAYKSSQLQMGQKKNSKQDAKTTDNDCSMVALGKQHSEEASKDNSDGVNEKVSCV

Consider `COc1cc([N+](=O)[O-])c(OC)cc1CCNCc1ccccc1I` [25N-NBI (10)], for which the EC50 (usually the concentration needed to bring the measured effect to its halfway point) in [1] (5-HT2A EC50, nM, Ca2+ flux) was 3.29 nM; in assay [6] (5-HT2C EC50, nM), 682 nM. Further, the Emax (usually the size of the effect at its maximum, as opposed to the concentration needed) was 88 ± 1% in assay [1], under 10% in [2] and 45 ± 2% in assay [6]. Further, the “5-HT2B EC50, nM” value in assay [2] is recorded as “No activity”. Besides, the Ki (in general, a dissociation constant, usually derived from enzyme kinetics or from competition with a known ligand) in assay [3] is 0.02 µM; in [4] it was 0.0437 µM; in assay [7], 1 µM; in assay [8], over 10 µM; in assay [9], over 10 µM; in assay [10], over 10 µM. Also, the Ki is 0.00537 µM in assay [11] and over 10 µM in [12]. Further, in assay [5], the “5-HT2A/5-HT2c Selectivity Factor ΔLog(Emax/EC50)” value was 406.

In the case of `COc1cc([N+](=O)[O-])c(OC)cc1CCNCc1ccccc1[N+](=O)[O-]` [25N-NBNO2 (15), [2-(2,5-dimethoxy-4-nitrophenyl)ethyl][(2-nitrophenyl)methyl]amine], the EC50 in assay [1] (5-HT2A EC50, nM, Ca2+ flux) was found to be 15.6 nM; in [6] (5-HT2C EC50, nM), 583 nM. The “5-HT2A Emax % 5-HT” value in assay [1] (Ca2+ flux) was determined as 64 ± 2 % 5-HT. The Emax in assay [1] is at most 77%; in assay [2], under 10%; in [6], 36 ± 2%. In addition, in assay [2], the “5-HT2B EC50, nM” value is reported as “No activity”. The Ki is 0.191 µM in assay [3]; 0.282 µM in assay [4]; 1.95 µM in assay [7]; over 10 µM in [8]; over 10 µM in [9]; over 10 µM in assay [10]. Moreover, the Ki in assay [11] is 0.0813 µM; in assay [12] it was over 10 µM. Besides, the “5-HT2A/5-HT2c Selectivity Factor ΔLog(Emax/EC50)” value in [5] is on record as 66.8.

As to `COc1cc([N+](=O)[O-])c(OC)cc1CCNCc1ccccc1OC(F)(F)F` [25N-NBOCF3 (12)], in [1] (Ca2+ flux), the “5-HT2A (pEC50 ± SEM)” value was “(8.09 ± 0.09)” and the “5-HT2A Emax % 5-HT” value worked out at 75 ± 2 % 5-HT. Moreover, in [1] (Ca2+ flux, read-out: 5-HT2A EC50), the EC50 was 8.09 nM. In addition, in assay [2], the “5-HT2B EC50, nM” value was “No activity” and the “5-HT2B Emax % 5-HT” value was under 10 % 5-HT. The “5-HT2B pKi affinity (Ki ± SEM)” value in assay [3] amounted to 7.86. Further, the “5-HT2C pKi affinity (Ki ± SEM)” value in [4] is on record as 7.33. Also, the “5-HT2A/5-HT2c Selectivity Factor ΔLog(Emax/EC50)” value in assay [5] turned out to be 6.1. Further, in assay [6], the “5-HT2C (pEC50 ± SEM)” value is on record as “(7.23 ± 0.04)” and the “5-HT2C Emax % 5-HT” value came out at 89 ± 1 % 5-HT. Also, the EC50 in assay [6] (read-out: 5-HT2C EC50) worked out at 58.3 nM. Besides, the “5-HT1A pKi affinity (Ki ± SEM)” value in assay [7] turned out to be 5.95. The “5-HT3 pKi affinity (Ki ± SEM)” value in assay [8] was under 5. In addition, the “5-HT1B pKi affinity (Ki ± SEM)” value in assay [9] was under 5. The “5-HT1D pKi affinity (Ki ± SEM)” value in [10] is listed as under 5. Besides, the “5-HT2A pKi affinity (Ki ± SEM)” value in [11] is on record as 7.84. Moreover, the “5-HT1e pKi affinity (Ki ± SEM)” value in [12] is under 5.

`COc1cc([N+](=O)[O-])c(OC)cc1CCNCc1ccccc1OC` [25N-NBOMe (4), [2-(2,5-dimethoxy-4-nitrophenyl)ethyl] [(2-methoxyphenyl)methyl]amine]: the EC50 stood at 0.316 nM in assay [1] (5-HT2A (pEC50 ± SEM), Ca2+ flux); 0.851 nM in [6] (5-HT2C (pEC50 ± SEM)); 0.84 nM in assay [6] (5-HT2C EC50, nM). For the same compound, the values for the Emax in [1], in [2] and in assay [6] were 94%, under 10% and 102 ± 1%, respectively. In [2], the “5-HT2B EC50, nM” value was “No activity”. In addition, the Ki was 0.00447 µM in [3]; 0.00692 µM in [4]; 1.86 µM in assay [7]; over 10 µM in assay [8]; over 10 µM in [9]; 5.62 µM in assay [10]. For the same compound, the Ki was 0.00055 µM in assay [11] and over 10 µM in assay [12]. Further, the “5-HT2A/5-HT2c Selectivity Factor ΔLog(Emax/EC50)” value in assay [5] is 2.4.

With `COc1cc([N+](=O)[O-])c(OC)cc1CCNCc1ccccc1-c1ccccc1` [25N-NBPh (17), ({[1,1′-biphenyl]-2-yl}methyl)[2-(2,5-dimethoxy-4-nitrophenyl)ethyl]amine], in [1] (Ca2+ flux), the “5-HT2A EC50, nM” value is given as “No activity”. Also, the Emax in assay [1], in [2] and in assay [6] was under 10% each time. In [2], the “5-HT2B EC50, nM” value is “No activity”. Besides, the Ki in assay [3] was 1.41 µM; in assay [4], 0.372 µM; in assay [7] it was 1.78 µM; in [8], over 10 µM; in assay [9], over 10 µM; in assay [10] it was 1.2 µM. Besides, the values for the Ki in assay [11] and in assay [12] were 0.000331 µM and over 10 µM, respectively. In addition, the “5-HT2A/5-HT2c Selectivity Factor ΔLog(Emax/EC50)” value in assay [5] is reported as 5-HT2A Selective. Moreover, the “5-HT2C EC50, nM” value in [6] is recorded as “No activity”.
